Where “and” joins values, the source holds several entries; their conditions need not be identical. Identical values can stand only once. Like-named read-outs stand apart in the source and are kept apart here.
Assays:
[1] = target: T1, human MOR signaling through Gαz with RGS20 (Homo sapiens, UniProt P35372); test: nanoBRET assay, MOR signaling through Gαz with RGS20 (RGSz1) coexpression; format: cell-based; conditions: RGS20 (RGSz1) co-expressed
T1 construct: host or cells: HEK 293T, transient

[2] = target: T2, human MOR signaling through Gαi3^K349R, E350G mutant (Homo sapiens, UniProt P35372); test: nanoBRET assay, MOR signaling through mutant Gαi3 K349R, E350G; format: cell-based; conditions: orthosteric agonist 7-hydroxymitragynine, read-out: KB (affinity of BMS-986122)
T2 construct: host or cells: HEK 293T, transient
Method: (§1) Human embryonic kidney (HEK) 293T cells (ATCC, Manassas, VA) maintained and transfected as described in previous work, with some modifications. Cells were cultured on 0.01% poly-L-lysine (Millipore Sigma, Darmstadt, Germany)-coated 10 cm dishes in Dulbecco’s modified Eagle medium (GIBCO, Grand Island, NY) supplemented with 5% fetal bovine serum, 1% nonessential amino acids, 1 mM sodium pyruvate, and 100 U/mL penicillin/streptomycin, maintained in an incubator at 37 °C in a 5% CO2 atmosphere. Prior to transfection, 3.0 × 10^6 cells were reseeded onto Matrigel-coated (Corning, Inc., Corning NY) 6 cm dishes and incubated for 4 h at 37 °C and 5% CO2. […]
(§2) BRET measurements between mVenus-Gβ1γ2 and masGRK3ct-nLuc for nanoBRET, and Gγ-GFP2 and Gα-rLuc8 for TruPATH, were performed to determine agonist-dependent activation of each Gα protein of interest in the presence and absence of BMS-986122, in live HEK 293T cells. […] For TruPATH, cells were incubated for 30 min at 25 °C prior to luminescence emissions being read at 515 and 410 nm. […]
(§3) This form of the operational model was selected because all parameters are constrained by default to be equal for each data set except for τ, which had no constraints. […] Statistical significance between Δlog(τ) values for each Gα subunit were calculated via one-way ANOVA with Tukey’s posthoc analysis. […]

[3] = target: T3, human MOR signaling through GαoA (Homo sapiens, UniProt P35372); format: cell-based
T3 construct: host or cells: HEK 293T, transient

[4] = target: T4, human MOR signaling through Gαi1 (Homo sapiens, UniProt P35372); format: cell-based
T4 construct: host or cells: HEK 293T, transient

[5] = test system: MOR; design: method as in Burford et al.; conditions: endomorphin-1 as orthosteric agonist, allosteric ternary complex model; ref Burford et al.; cited from earlier work
[6] = target: T5, human MOR signaling through GαoB (Homo sapiens, UniProt P35372); format: cell-based; conditions: for Kb: read-out: KB (affinity of BMS-986122)
T5 construct: host or cells: HEK 293T, transient

[7] = target: T6, human MOR signaling through Gαi2^N346 K mutant (Homo sapiens, UniProt P35372); test: nanoBRET assay, MOR signaling through mutant Gαi2 N346K; format: cell-based; conditions: orthosteric agonist 7-hydroxymitragynine, read-out: KB (affinity of BMS-986122)
T6 construct: host or cells: HEK 293T, transient
Method: as §1, §2, §3

[8] = target: T7, human MOR signaling through Gαi3 (Homo sapiens, UniProt P35372); format: cell-based
T7 construct: host or cells: HEK 293T, transient

[9] = target: T8, human MOR signaling through Gαi3-oBct (Homo sapiens, UniProt P35372); test: nanoBRET assay, MOR signaling through Gαi3-oBct chimera (C-terminus of GαoB); format: cell-based; conditions: orthosteric agonist 7-hydroxymitragynine, read-out: KB (affinity of BMS-986122)
T8 construct: host or cells: HEK 293T, transient
Method: as §1, §2, §3

[10] = test system: human MOR signaling through different Gα subunits; test: nanoBRET assay, comparison or average across Gα subunits; format: cell-based; conditions: 7-hydroxymitragnine as agonist, 10 μM PAM, relative transduction coefficients compared between Gαi3 and GαoB
[11] = target: T9, human MOR signaling through Gαi2 (Homo sapiens, UniProt P35372); format: cell-based; conditions: for Kb: read-out: KB (affinity of BMS-986122)
T9 construct: host or cells: HEK 293T, transient

[12] = target: T10, human MOR signaling through Gαz (Homo sapiens, UniProt P35372); format: cell-based; conditions: Gαz, up to 10 μM, absence of any orthosteric agonist, no RGS20
T10 construct: host or cells: HEK 293T, transient
T10 sequence (P35372 whole entry): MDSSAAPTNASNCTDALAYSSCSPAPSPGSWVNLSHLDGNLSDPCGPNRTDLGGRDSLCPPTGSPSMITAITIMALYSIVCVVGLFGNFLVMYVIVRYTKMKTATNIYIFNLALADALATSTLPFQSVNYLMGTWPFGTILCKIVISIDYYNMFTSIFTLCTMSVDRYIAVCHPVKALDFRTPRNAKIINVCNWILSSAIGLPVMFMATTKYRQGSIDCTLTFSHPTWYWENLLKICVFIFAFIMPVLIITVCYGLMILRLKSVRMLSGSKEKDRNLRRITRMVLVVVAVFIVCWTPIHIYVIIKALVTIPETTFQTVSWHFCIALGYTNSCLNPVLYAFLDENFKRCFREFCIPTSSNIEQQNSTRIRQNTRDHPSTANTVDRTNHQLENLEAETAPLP
T10 sequence (P19086 2-355 partner limits assumed): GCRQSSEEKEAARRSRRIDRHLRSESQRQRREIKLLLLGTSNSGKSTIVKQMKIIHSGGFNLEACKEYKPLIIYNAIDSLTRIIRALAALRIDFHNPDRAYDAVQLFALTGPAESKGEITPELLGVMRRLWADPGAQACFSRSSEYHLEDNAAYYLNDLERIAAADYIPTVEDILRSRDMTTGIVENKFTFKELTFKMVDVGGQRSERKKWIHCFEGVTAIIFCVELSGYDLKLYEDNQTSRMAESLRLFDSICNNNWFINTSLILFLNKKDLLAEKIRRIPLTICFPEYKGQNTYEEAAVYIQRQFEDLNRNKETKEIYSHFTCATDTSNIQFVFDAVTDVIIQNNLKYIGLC

T4 sequence (P35372 whole entry): as the sequence (P35372 whole entry) above
T4 sequence (P63096 2-354 partner limits assumed): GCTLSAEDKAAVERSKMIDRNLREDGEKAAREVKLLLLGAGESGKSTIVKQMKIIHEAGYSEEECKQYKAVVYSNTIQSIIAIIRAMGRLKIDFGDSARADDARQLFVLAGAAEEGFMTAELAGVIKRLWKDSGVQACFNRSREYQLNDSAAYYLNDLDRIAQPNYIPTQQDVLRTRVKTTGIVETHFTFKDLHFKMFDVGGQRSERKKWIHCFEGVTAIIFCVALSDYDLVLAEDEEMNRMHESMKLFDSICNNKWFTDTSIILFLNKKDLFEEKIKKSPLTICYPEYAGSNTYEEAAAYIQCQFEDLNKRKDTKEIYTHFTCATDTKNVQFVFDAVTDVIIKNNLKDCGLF
T7 sequence (P35372 whole entry): as the sequence (P35372 whole entry) above
T7 sequence (P08754 2-354 partner limits assumed): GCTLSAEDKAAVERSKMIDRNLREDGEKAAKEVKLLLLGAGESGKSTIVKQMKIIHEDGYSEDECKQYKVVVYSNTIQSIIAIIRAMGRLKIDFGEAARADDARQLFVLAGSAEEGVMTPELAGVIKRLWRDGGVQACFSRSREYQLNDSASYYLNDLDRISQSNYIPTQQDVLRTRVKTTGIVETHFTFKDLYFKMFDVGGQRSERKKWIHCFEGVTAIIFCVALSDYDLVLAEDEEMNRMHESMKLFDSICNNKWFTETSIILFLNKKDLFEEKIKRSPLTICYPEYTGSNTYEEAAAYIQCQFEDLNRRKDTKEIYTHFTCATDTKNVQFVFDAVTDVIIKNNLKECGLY
T3 sequence (P35372 whole entry): as the sequence (P35372 whole entry) above
T3 sequence (P09471 2-354 partner limits assumed): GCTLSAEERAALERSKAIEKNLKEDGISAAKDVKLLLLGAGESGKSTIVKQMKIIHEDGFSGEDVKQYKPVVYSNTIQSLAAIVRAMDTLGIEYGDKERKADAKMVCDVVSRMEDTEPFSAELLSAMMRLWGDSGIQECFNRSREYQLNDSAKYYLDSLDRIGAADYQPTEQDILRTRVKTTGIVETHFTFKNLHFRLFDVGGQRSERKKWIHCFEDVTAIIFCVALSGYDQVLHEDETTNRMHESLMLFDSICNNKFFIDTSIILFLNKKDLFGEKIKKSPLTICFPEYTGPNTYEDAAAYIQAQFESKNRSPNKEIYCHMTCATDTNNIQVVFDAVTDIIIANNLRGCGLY
T5 sequence (P35372 whole entry): as the sequence (P35372 whole entry) above
T5 sequence (P09471 2-354 isoform P09471-2 partner limits assumed): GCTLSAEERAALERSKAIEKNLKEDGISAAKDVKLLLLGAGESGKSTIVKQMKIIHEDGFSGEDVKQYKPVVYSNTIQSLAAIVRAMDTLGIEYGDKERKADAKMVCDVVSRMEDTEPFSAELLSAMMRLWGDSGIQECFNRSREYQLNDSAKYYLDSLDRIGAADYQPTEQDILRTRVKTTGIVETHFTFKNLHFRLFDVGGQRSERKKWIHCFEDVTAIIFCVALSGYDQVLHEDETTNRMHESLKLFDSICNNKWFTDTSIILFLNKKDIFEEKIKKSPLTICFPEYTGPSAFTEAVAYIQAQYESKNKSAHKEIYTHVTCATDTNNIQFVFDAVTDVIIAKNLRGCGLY
T9 sequence (P35372 whole entry): as the sequence (P35372 whole entry) above
T9 sequence (P04899 2-355 partner limits assumed): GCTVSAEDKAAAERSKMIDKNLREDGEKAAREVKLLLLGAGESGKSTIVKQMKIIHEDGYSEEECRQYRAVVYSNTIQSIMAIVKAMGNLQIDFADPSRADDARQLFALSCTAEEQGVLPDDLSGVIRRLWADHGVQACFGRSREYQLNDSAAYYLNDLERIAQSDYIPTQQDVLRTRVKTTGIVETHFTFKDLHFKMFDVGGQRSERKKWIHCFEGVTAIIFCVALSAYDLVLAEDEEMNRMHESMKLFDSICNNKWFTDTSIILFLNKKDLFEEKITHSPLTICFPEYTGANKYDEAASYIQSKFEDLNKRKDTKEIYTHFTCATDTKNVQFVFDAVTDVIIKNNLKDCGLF
T8 sequence (P35372 whole entry): as the sequence (P35372 whole entry) above
T8 sequence (P08754 with tags, fused parts or gaps K345A/N346K/K349R/E350G partner limits assumed): as the sequence (P08754 2-354 partner limits assumed) above, with K344A, N345K, K348R, E349G counted along it
T2 sequence (P35372 whole entry, stated change not applied): as the sequence (P35372 whole entry) above
T2 sequence (P08754 with tags, fused parts or gaps K349R/E350G partner): as the sequence (P08754 2-354 partner limits assumed) above, with K348R, E349G counted along it
T6 sequence (P35372 whole entry, stated change not applied): as the sequence (P35372 whole entry) above
T6 sequence (P04899 with tags, fused parts or gaps N347K partner): as the sequence (P04899 2-355 partner limits assumed) above, with N346K counted along it
T1 sequence (P35372 whole entry): as the sequence (P35372 whole entry) above
T1 sequence (P19086 2-355 partner limits assumed): as the sequence (P19086 2-355 partner limits assumed) above

COc1ccc(C2SCCN2S(=O)(=O)c2ccc(Cl)cc2)cc1Br (stereo not drawn) [BMS-986122]
Allosteric agonism of PAM alone with RGS20 co-expression [1]: effectively eliminate the allosteric agonism
Kb [2]: 2800 ± 400 nM
α (affinity cooperativity factor of BMS-986122) [3]: 7.1 ± 1.0 and 4.3 ± 0.7
β (efficacy cooperativity factor of BMS-986122) [3]: 4.2 ± 0.3
β (efficacy cooperativity factor of BMS-986122) ([3]; GαoA, orthosteric agonist 7-Hydroxymitragynine, functional allosteric model): 12 ± 1.8
Kb ([3]; GαoA, orthosteric agonist 7-Hydroxymitragynine, read-out: KB (affinity of BMS-986122)): 8000 ± 200 nM
Response of PAM alone (allosteric agonism) ([3]; GαoA, up to 10 μM, absence of any orthosteric agonist): no response
α (affinity cooperativity factor of BMS-986122) [4]: 5.0 ± 0.2 and 6.9 ± 0.9
β (efficacy cooperativity factor of BMS-986122) [4]: 10 ± 0.8
Response of PAM alone (allosteric agonism) ([4]; Gαi1, up to 10 μM, absence of any orthosteric agonist): no response
Kb ([4]; read-out: KB (affinity of BMS-986122)): 2500 nM and 3400 nM
Affinity cooperativity factor α [5]: 7.0
Kb [5]: 5000 nM
β (efficacy cooperativity factor of BMS-986122) [6]: 4.2 ± 0.8
Kb ([6]; GαoB (WT), orthosteric agonist 7-Hydroxymitragynine): 540 ± 100 nM
Hill coefficient of R50 curve ([6]; GαoB, BMS-986122 titrated in presence of 10 μM 7-hydroxymitragynine): 3.0
EC50 ([6]; GαoB, BMS-986122 titrated in presence of constant 10 μM 7-hydroxymitragynine, read-out: R50 (concentration of PAM which gives a half-maximal response)): 670 ± 110 nM
β (efficacy cooperativity factor of BMS-986122) ([6]; GαoB, orthosteric agonist 7-Hydroxymitragynine, functional allosteric model): 15 ± 4.2
Response of PAM alone (allosteric agonism) ([6]; GαoB, up to 10 μM, absence of any orthosteric agonist): no response
Kb [6]: 620 ± 180 nM
Kb [7]: 690 ± 60 nM
Kb ([8]; Gαi3 (WT), orthosteric agonist 7-Hydroxymitragynine, read-out: KB (affinity of BMS-986122)): 2300 ± 800 nM
β (efficacy cooperativity factor of BMS-986122) ([8]; Gαi3, orthosteric agonist 7-Hydroxymitragynine, functional allosteric model): 5.9 ± 1.1
Response of PAM alone (allosteric agonism) ([8]; Gαi3, up to 10 μM, absence of any orthosteric agonist): no response
Kb [9]: 700 ± 60 nM
ΔΔlog(τ)oB-i3 [10]: 0.708
α (affinity cooperativity factor of BMS-986122) [11]: 5.9 ± 0.6 and 3.2 ± 0.3
β (efficacy cooperativity factor of BMS-986122) [11]: 3.3 ± 0.3
Kb ([11]; Gαi2 (WT), orthosteric agonist 7-Hydroxymitragynine): 3100 ± 700 nM
β (efficacy cooperativity factor of BMS-986122) ([11]; Gαi2, orthosteric agonist 7-Hydroxymitragynine, functional allosteric model): 10 ± 2.8
Response of PAM alone (allosteric agonism) ([11]; Gαi2, up to 10 μM, absence of any orthosteric agonist): no response
Kb [11]: 2400 nM and 1500 nM and 1900 nM
Emax of PAM alone (allosteric agonism) [12]: 21 ± 2%

— paper PMC12138978, “Mu Opioid Receptor Positive Allosteric Modulator BMS-986122 Confers Agonist-Dependent G Protein Subtype Signaling Bias” (Biochemistry, 2025)
